Assay results from PMC6145453 (ACS infectious diseases, 2018).
“Also recorded” adds a separate entry of the source.

What was measured:
[1] = system: A/Brisbane/59/2007-R (oseltamivir resistant); assay: microbe, parasite or virus in culture; assay type: cell-based; conditions: Influenza A virus, H1N1, A549, 24 h
rWSN-NP/Y40F virus = assay type: cell-based, influenza A virus
influenza A/WSN/33 virus = assay type: cell-based
[2] = target: NP (rY40F WSN virus infected A549 cells) (Influenza A virus, UniProt P15682, G34D/P283S/Y40F); assay type: cell-based

| SMILES | IC50 [1] | resistance phenotype of Y40F mutant virus (rWSN-NP/Y40F virus) | maximum virus inhibition while maintaining enough virus production for passages (influenza A/WSN/33 virus) | effect on NP oligomerization [2] |
| --- | --- | --- | --- | --- |
| CC(C)(C)c1ccc(C(=O)Nc2ccc(NC(=O)c3ccc(C(C)(C)C)cc3)cc2)cc1 [S119, N,N′-(1,4-Phenylene)bis(4-(tert-butyl)benzamide)] | > 50 µM | resistant phenotype | 3 logs | unaffected |
| CC(C)(C)c1ccc(C(=O)Nc2ccc(Nc3ccccc3)cc2)cc1 [S119-8, 4-(tert-butyl)-N-(4-(phenylamino)-phenyl)benzamide] | 3.85 µM | maintained resistance; also recorded: retains the same Y40F resistant phenotype |  |  |
| Cc1onc(-c2ccccc2)c1C(=O)N1CCN(c2ccc([N+](=O)[O-])cc2Cl)CC1 [nucleozin, reference compound] |  | minor resistance phenotype |  | altered |
